According to PubChem BioAssay (NCI):
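Tested at 5 concentrations; 48 h exposure; 96-well plates; endpoints linearly interpolated, else capped at highest concentration. TGI: total growth inhibition.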

Experiments:
Test in all cases: NCI tumour cell line growth inhibition, 48 h
HCT-15 colon = system: HCT-15 colon
XF 498 CNS = system: XF 498 CNS
MOLT-4 leukemia = system: MOLT-4 leukemia
A549 NSCLC = system: A549 NSCLC
M19-MEL melanoma = system: M19-MEL melanoma
NCI-H23 lung = system: NCI-H23 lung
MCF7 breast = system: MCF7 breast
SNB-78 CNS = system: SNB-78 CNS
A498 renal = system: A498 renal
UACC-62 melanoma = system: UACC-62 melanoma
DMS 273 small cell lung = system: DMS 273 small cell lung
EKVX NSCLC = system: EKVX NSCLC
K-562 leukemia = system: K-562 leukemia
HCC-2998 colon = system: HCC-2998 colon
DLD-1 colon = system: DLD-1 colon
IGROV1 ovarian = system: IGROV1 ovarian
HOP-92 NSCLC = system: HOP-92 NSCLC
LXFL 529 NSCLC = system: LXFL 529 NSCLC

With `CCCC(O)C(NC(=O)CCl)C(=O)O` (stereo not given) the TGI (HCT-15 colon) was > 100 µM, the TGI (XF 498 CNS) was > 100 µM and the TGI (MOLT-4 leukemia) was > 100 µM. The TGI (A549 NSCLC) was > 100 µM, the TGI (M19-MEL melanoma) was > 100 µM and the TGI (NCI-H23 lung) was > 100 µM. For the same molecule, the TGI (MCF7 breast) was > 100 µM, the TGI (SNB-78 CNS) was > 100 µM and the TGI (A498 renal) was > 100 µM. For the same molecule, the TGI (UACC-62 melanoma) was > 100 µM, the TGI (DMS 273 small cell lung) was > 100 µM and the TGI (EKVX NSCLC) was > 100 µM. The TGI (K-562 leukemia) was > 100 µM, the TGI (HCC-2998 colon) was > 100 µM and the TGI (DLD-1 colon) was > 100 µM. For the same molecule, the TGI (IGROV1 ovarian) was > 100 µM and the TGI (HOP-92 NSCLC) was > 100 µM.
`COc1cc2c(cc1O)C1C(O)C(O)C=C3CCN(C2)C31` (stereo not given) was tested, and the TGI (HCT-15 colon) was 25.2 µM, the TGI (XF 498 CNS) was 4.36 µM and the TGI (MOLT-4 leukemia) was 12.2 µM. For the same molecule, the TGI (LXFL 529 NSCLC) was 34.9 µM, the TGI (A549 NSCLC) was 10.5 µM and the TGI (M19-MEL melanoma) was 8.84 µM. It also gave a TGI (NCI-H23 lung) of 6.39 µM, a TGI (SNB-78 CNS) of 9.27 µM and a TGI (UACC-62 melanoma) of 3.97 µM. For the same molecule, the TGI (DMS 273 small cell lung) was 8.24 µM, the TGI (EKVX NSCLC) was 14.8 µM and the TGI (K-562 leukemia) was > 100 µM. The TGI (HCC-2998 colon) was 8.44 µM, the TGI (DLD-1 colon) was 14.2 µM and the TGI (IGROV1 ovarian) was 13.6 µM. It also gave a TGI (HOP-92 NSCLC) of 5.92 µM.
With `CC(C)=CCc1c(O)ccc2ccc(=O)oc12` the TGI (HCT-15 colon) was > 100 µM, the TGI (MOLT-4 leukemia) was 84.2 µM and the TGI (A549 NSCLC) was > 100 µM. For the same molecule, the TGI (M19-MEL melanoma) was > 100 µM, the TGI (NCI-H23 lung) was > 100 µM and the TGI (MCF7 breast) was > 100 µM. The TGI (SNB-78 CNS) was > 100 µM, the TGI (A498 renal) was > 100 µM and the TGI (UACC-62 melanoma) was > 100 µM. For the same molecule, the TGI (DMS 273 small cell lung) was > 100 µM, the TGI (EKVX NSCLC) was > 100 µM and the TGI (K-562 leukemia) was > 100 µM. For the same molecule, the TGI (HCC-2998 colon) was > 100 µM, the TGI (DLD-1 colon) was > 100 µM and the TGI (IGROV1 ovarian) was > 100 µM. For the same molecule, the TGI (HOP-92 NSCLC) was 94.6 µM.
Work on `COc1cccc2c1C(=O)c1c(O)c3c(c(O)c1C2=O)C[C@@](O)(C(=O)CO)C[C@@H]3OC1CC(N)C(OC)C(C)O1` (stereo not given in full) yielded a TGI (HCT-15 colon) of 13.2 µM, a TGI (MOLT-4 leukemia) of 0.0517 µM and a TGI (LXFL 529 NSCLC) of 0.432 µM. The TGI (A549 NSCLC) was 18.7 µM, the TGI (M19-MEL melanoma) was 0.237 µM and the TGI (NCI-H23 lung) was 0.457 µM. It also gave a TGI (MCF7 breast) of 0.41 µM, a TGI (SNB-78 CNS) of 16.9 µM and a TGI (A498 renal) of 0.582 µM. For the same molecule, the TGI (UACC-62 melanoma) was 0.227 µM, the TGI (DMS 273 small cell lung) was 1.4 µM and the TGI (EKVX NSCLC) was 9.35 µM. For the same molecule, the TGI (K-562 leukemia) was 0.0483 µM, the TGI (HCC-2998 colon) was 0.763 µM and the TGI (DLD-1 colon) was 3.37 µM. The TGI (IGROV1 ovarian) was 16.4 µM and the TGI (HOP-92 NSCLC) was 0.631 µM.
`CC#C[P+](c1ccccc1)(c1ccccc1)c1ccccc1` showed a TGI (HCT-15 colon) of 35.8 µM, a TGI (XF 498 CNS) of 7.26 µM and a TGI (MOLT-4 leukemia) of 5.31 µM. The TGI (LXFL 529 NSCLC) was 12.6 µM, the TGI (A549 NSCLC) was > 100 µM and the TGI (M19-MEL melanoma) was 11.8 µM. The TGI (NCI-H23 lung) was 7.03 µM, the TGI (SNB-78 CNS) was 22.9 µM and the TGI (A498 renal) was > 100 µM. The TGI (UACC-62 melanoma) was 14.8 µM, the TGI (DMS 273 small cell lung) was 10.6 µM and the TGI (EKVX NSCLC) was 22.5 µM. The TGI (K-562 leukemia) was 11.8 µM, the TGI (HCC-2998 colon) was 14.5 µM and the TGI (DLD-1 colon) was 16.7 µM. For the same molecule, the TGI (IGROV1 ovarian) was 26.1 µM and the TGI (HOP-92 NSCLC) was 5.42 µM.
With `O=C(c1cc(Cl)cc(Cl)c1)N1CCN(C(=O)c2cc(Cl)cc(Cl)c2)C1=S` the TGI (HCT-15 colon) was 31 µM, the TGI (MOLT-4 leukemia) was 19.6 µM and the TGI (A549 NSCLC) was 44.6 µM. The TGI (NCI-H23 lung) was 34.6 µM, the TGI (MCF7 breast) was 12.5 µM and the TGI (A498 renal) was 31.6 µM. For the same molecule, the TGI (UACC-62 melanoma) was 23.5 µM, the TGI (EKVX NSCLC) was 31.9 µM and the TGI (K-562 leukemia) was > 50.8 µM. The TGI (HCC-2998 colon) was 31 µM, the TGI (IGROV1 ovarian) was 32.8 µM and the TGI (HOP-92 NSCLC) was 22.4 µM.
In the case of `CCCCn1c(C)c2c(c1C)C(=O)N(CC(O)CN1CCc3ccccc3C1)C2=O` (stereo not given), the TGI (HCT-15 colon) is reported as > 100 µM, the TGI (MOLT-4 leukemia) is reported as > 100 µM and the TGI (A549 NSCLC) is reported as > 100 µM. For the same molecule, the TGI (NCI-H23 lung) was > 100 µM, the TGI (MCF7 breast) was > 100 µM and the TGI (A498 renal) was > 100 µM. For the same molecule, the TGI (UACC-62 melanoma) was > 100 µM, the TGI (EKVX NSCLC) was > 100 µM and the TGI (K-562 leukemia) was > 100 µM. For the same molecule, the TGI (HCC-2998 colon) was > 100 µM, the TGI (IGROV1 ovarian) was > 100 µM and the TGI (HOP-92 NSCLC) was > 100 µM.
For `COc1ccc(CCN=C2OCc3ccccc32)cc1OC`, the TGI (HCT-15 colon) was > 100 µM, the TGI (MOLT-4 leukemia) was > 100 µM and the TGI (A549 NSCLC) was > 100 µM. The TGI (NCI-H23 lung) was > 100 µM, the TGI (MCF7 breast) was 90.4 µM and the TGI (A498 renal) was > 100 µM. For the same molecule, the TGI (UACC-62 melanoma) was > 100 µM, the TGI (EKVX NSCLC) was > 100 µM and the TGI (K-562 leukemia) was > 100 µM. For the same molecule, the TGI (HCC-2998 colon) was > 100 µM, the TGI (IGROV1 ovarian) was > 100 µM and the TGI (HOP-92 NSCLC) was > 100 µM.
In the case of `CC(C)=C1C(=O)C[C@]2(C)C[C@H]3/C(=C(/C)CCC12)CC[C@@]3(C)O` (stereo not given in full), the TGI (HCT-15 colon) is reported as > 50 µM, the TGI (MOLT-4 leukemia) is reported as > 50 µM and the TGI (A549 NSCLC) is reported as > 50 µM. The TGI (NCI-H23 lung) was > 50 µM, the TGI (MCF7 breast) was > 50 µM and the TGI (A498 renal) was > 50 µM. The TGI (UACC-62 melanoma) was > 50 µM, the TGI (EKVX NSCLC) was > 50 µM and the TGI (K-562 leukemia) was > 50 µM. The TGI (HCC-2998 colon) was > 50 µM, the TGI (IGROV1 ovarian) was > 50 µM and the TGI (HOP-92 NSCLC) was > 50 µM.
`COc1ccc(CN(Cc2ccc(OC)cc2)C(=O)CC2(O)C=CCC2)cc1` (stereo not given) was tested, and the TGI (HCT-15 colon) was > 100 µM, the TGI (MOLT-4 leukemia) was > 100 µM and the TGI (A549 NSCLC) was > 100 µM. The TGI (NCI-H23 lung) was > 100 µM, the TGI (MCF7 breast) was > 100 µM and the TGI (A498 renal) was > 100 µM. The TGI (UACC-62 melanoma) was > 100 µM, the TGI (EKVX NSCLC) was > 100 µM and the TGI (K-562 leukemia) was > 100 µM. For the same molecule, the TGI (HCC-2998 colon) was > 100 µM, the TGI (IGROV1 ovarian) was > 100 µM and the TGI (HOP-92 NSCLC) was > 100 µM.
`O=C(/C=C/C=C/c1ccccc1)c1ccc2c(c1)CCCC2` was tested, and the TGI (HCT-15 colon) was > 100 µM, the TGI (MOLT-4 leukemia) was 87.6 µM and the TGI (A549 NSCLC) was > 100 µM. The TGI (NCI-H23 lung) was > 100 µM, the TGI (MCF7 breast) was > 100 µM and the TGI (A498 renal) was > 100 µM. The TGI (UACC-62 melanoma) was > 100 µM, the TGI (EKVX NSCLC) was > 100 µM and the TGI (K-562 leukemia) was > 100 µM. For the same molecule, the TGI (HCC-2998 colon) was 63.3 µM, the TGI (IGROV1 ovarian) was > 100 µM and the TGI (HOP-92 NSCLC) was 89.9 µM.
